Results as given in patent US8877748B2, “Heterocyclic fused anthraquinone derivatives, manufacturing method and pharmaceutical composition using thereof” (National Defense Medical Center, priority 2012, dated 2014).

Columns and labels:
U251 = test: NCI one-dose screening, CNS cancer U251; type: cell-based, human; conditions: 10 μM
EKVX = test: NCI one-dose screening, non-small cell lung cancer EKVX; type: cell-based, human; conditions: 10 μM
HS 578-T = test: NCI one-dose screening, breast cancer HS 578-T; type: cell-based, human; conditions: 10 μM; Breast cancer
SK-MEL-28 = test: NCI one-dose screening, melanoma SK-MEL-28; type: cell-based, human; conditions: 10 μM
SR = test: NCI one-dose screening, leukemia SR; type: cell-based, human; conditions: 10 μM
MALME-3M = test: NCI one-dose screening, melanoma MALME-3M; type: cell-based, human; conditions: 10 μM
MCF7 = test: NCI one-dose screening, breast cancer MCF7; type: cell-based, human; conditions: 10 μM
HCC-2998 = test: NCI one-dose screening, colon cancer HCC-2998; type: cell-based, human; conditions: 10 μM
PC-3 = test: NCI one-dose screening, prostate cancer PC-3; type: cell-based, human; conditions: 10 μM
UACC-62 = test: NCI one-dose screening, melanoma UACC-62; type: cell-based, human; conditions: 10 μM
SNB-75 = test: NCI one-dose screening, CNS cancer SNB-75; type: cell-based, human; conditions: 10 μM
KM12 = test: NCI one-dose screening, colon cancer KM12; type: cell-based, human; conditions: 10 μM
786-O = test: NCI one-dose screening, renal cancer 786-O; type: cell-based, human; conditions: 10 μM
NCI-H460 = test: NCI one-dose screening, non-small cell lung cancer NCI-H460; type: cell-based, human; conditions: 10 μM
T-47D = test: NCI one-dose screening, breast cancer T-47D; type: cell-based, human; conditions: 10 μM
human tumor cell lines = test: NCI one-dose screening, Mean / Delta / Range of growth percent over all tested cell lines; type: cell-based; conditions: 10 μM
UO-31 = test: NCI one-dose screening, renal cancer UO-31; type: cell-based, human; conditions: 10 μM
HOP-62 = test: NCI one-dose screening, non-small cell lung cancer HOP-62; type: cell-based, human; conditions: 10 μM
CCRF-CEM = test: NCI screening platform one-dose single concentration screening, leukemia CCRF-CEM; type: cell-based, human; conditions: 10 μM
SK-MEL-2 = test: NCI one-dose screening, melanoma SK-MEL-2; type: cell-based, human; conditions: 10 μM
MDA-MB-468 = test: NCI one-dose screening, breast cancer MDA-MB-468; type: cell-based, human; conditions: 10 μM
OVCAR-4 = test: NCI one-dose screening, ovarian cancer OVCAR-4; type: cell-based, human; conditions: 10 μM
A549/ATCC = test: NCI one-dose screening, non-small cell lung cancer A549/ATCC; type: cell-based, human; conditions: 10 μM
IGROV1 = test: NCI one-dose screening, ovarian cancer IGROV1; type: cell-based, human; conditions: 10 μM
MDA-MB-231/ATCC = test: NCI one-dose screening, breast cancer MDA-MB-231/ATCC; type: cell-based, human; conditions: 10 μM
SF-295 = test: NCI one-dose screening, CNS cancer SF-295; type: cell-based, human; conditions: 10 μM
UACC-257 = test: NCI one-dose screening, melanoma UACC-257; type: cell-based, human; conditions: 10 μM
CAKI-1 = test: NCI one-dose screening, renal cancer CAKI-1; type: cell-based, human; conditions: 10 μM
HL-60, TB = test: NCI one-dose screening, leukemia HL-60, TB; type: cell-based, human; conditions: 10 μM
NCI-H322M = test: NCI one-dose screening, non-small cell lung cancer NCI-H322M; type: cell-based, human; conditions: 10 μM; Non-small cell lung cancer
SK-MEL-5 = test: NCI one-dose screening, melanoma SK-MEL-5; type: cell-based, human; conditions: 10 μM
BT-549 = test: NCI one-dose screening, breast cancer BT-549; type: cell-based, human; conditions: 10 μM
ACHN = test: NCI one-dose screening, renal cancer ACHN; type: cell-based, human; conditions: 10 μM
[1] = test system: PC-3 prostate cancer cell line; test: SRB assay cell viability, PC-3 prostate cancer cell line; type: cell-based, human; conditions: Homo sapiens, PC-3 prostate cancer cell line, Table II prints no unit, μM printed, read-out: SRB assay: 50% inhibition of cancer cell proliferation of sample concentration (IC50) of PC-3 prostate cancer cell line
PRMI-8226 cell line = test: NCI one-dose screening, leukemia PRMI-8226; type: cell-based, human; conditions: 10 μM
HCT-116 = test: NCI one-dose screening, colon cancer HCT-116; type: cell-based, human; conditions: 10 μM
SNB-19 = test: NCI one-dose screening, CNS cancer SNB-19; type: cell-based, human; conditions: 10 μM
M14 = test: NCI one-dose screening, melanoma M14; type: cell-based, human; conditions: 10 μM
K562cell line = test: NCI one-dose screening, leukemia K562; type: cell-based, human; conditions: 10 μM
OVCAR-5 = test: NCI one-dose screening, ovarian cancer OVCAR-5; type: cell-based, human; conditions: 10 μM
HCT-15 = test: NCI one-dose screening, colon cancer HCT-15; type: cell-based, human; conditions: 10 μM
LOX IMVI = test: NCI one-dose screening, melanoma LOX IMVI; type: cell-based, human; conditions: 10 μM
OVCAR-3 = test: NCI one-dose screening, ovarian cancer OVCAR-3; type: cell-based, human; conditions: 10 μM
NCl/ADR-RES = test: NCI one-dose screening, breast cancer NCl/ADR-RES; type: cell-based, human; conditions: 10 μM; listed under Ovarian cancer
NCI-H522 = test: NCI one-dose screening, non-small cell lung cancer NCI-H522; type: cell-based, human; conditions: 10 μM
HT29 = test: NCI one-dose screening, colon cancer HT29; type: cell-based, human; conditions: 10 μM
TK-10 = test: NCI one-dose screening, renal cancer TK-10; type: cell-based, human; conditions: 10 μM
RXF, 393 = test: NCI one-dose screening, renal cancer RXF, 393; type: cell-based, human; conditions: 10 μM
MOLT-4 = test: NCI one-dose screening, leukemia MOLT-4; type: cell-based, human; conditions: 10 μM
SF-268 = test: NCI one-dose screening, CNS cancer SF-268; type: cell-based, human; conditions: 10 μM
MDA, -MB-435 = test: NCI one-dose screening, breast cancer MDA, -MB-435; type: cell-based, human; conditions: 10 μM; listed under Melanoma
SN12C = test: NCI one-dose screening, renal cancer SN12C; type: cell-based, human; conditions: 10 μM
OVCAR-8 = test: NCI one-dose screening, ovarian cancer OVCAR-8; type: cell-based, human; conditions: 10 μM
DU145 = test: NCI one-dose screening, prostate cancer DU145; type: cell-based, human; conditions: 10 μM
NCI-H23 = test: NCI one-dose screening, non-small cell lung cancer NCI-H23; type: cell-based, human; conditions: 10 μM
NCI-H226 = test: NCI one-dose screening, non-small cell lung cancer NCI-H226; type: cell-based, human; conditions: 10 μM
COLO 205 = test: NCI one-dose screening, colon cancer COLO 205; type: cell-based, human; conditions: 10 μM
SF-539 = test: NCI one-dose screening, CNS cancer SF-539; type: cell-based, human; conditions: 10 μM

O=C1c2ccccc2C(=O)c2c1cc(N1CCSCC1)c1nsnc21 [C15, 4-(thiomorpholino)anthra[2,1-c][1,2,5] thiadiazol-6,11-dione]
Growth Percent U251 (U251): 40.24%
Growth Percent EKVX (EKVX): 86.63%
Growth Percent HS 578T (HS 578-T): 84.36%
melting point: 219 to 220 °C
Growth Percent SK-MEL-28 (SK-MEL-28): 90.60%
Growth Percent SR (SR): 55.02%
Growth Percent MALME-3M (MALME-3M): 48.56%
Growth Percent MCF7 (MCF7): 49.73%
Growth Percent HCC-2998 (HCC-2998): 107.83%
Growth Percent PC-3 (PC-3): 56.99%
Growth Percent UACC-62 (UACC-62): 83.96%
Growth Percent SNB-75 (SNB-75): 105.73%
Growth Percent KM12 (KM12): 83.12%
Growth Percent 786-0 (786-O): 120.26%
Growth Percent NCI-H460 (NCI-H460): 87.46%
Growth Percent T-47D (T-47D): 56.78%
Growth Percent Delta (human tumor cell lines; delta over all cell lines): 70.03%
Growth Percent Mean (human tumor cell lines; mean over all cell lines): 70.31%
Growth Percent Range (human tumor cell lines; range over all cell lines): 119.98%
Growth Percent UO-31 (UO-31): 61.00%
Growth Percent HOP-62 (HOP-62): 76.66%
Growth Percent CCRF-CEM (CCRF-CEM): 43.60%
Growth Percent SK-MEL-2 (SK-MEL-2): 43.98%
Growth Percent MDA-MB-468 (MDA-MB-468): 12.59%
Growth Percent OVCAR-4 (OVCAR-4): 0.28%
Growth Percent A549/ATCC (A549/ATCC): 62.74%
Growth Percent IGROV1 (IGROV1): 75.28%
Growth Percent MDA-MB-231/ATCC (MDA-MB-231/ATCC): 45.69%
Growth Percent SF-295 (SF-295): 94.85%
Growth Percent UACC-257 (UACC-257): 35.78%
Growth Percent CAKI-1 (CAKI-1): 76.06%
Growth Percent HL-60(TB) (HL-60, TB): 51.57%
Growth Percent NCI-H322M (NCI-H322M): 91.69%
Growth Percent SK-MEL-5 (SK-MEL-5): 22.81%
Growth Percent BT-549 (BT-549): 104.74%
Growth Percent ACHN (ACHN): 83.52%
IC50 [1]: > 15 µM
Growth Percent RPMI-8226 (PRMI-8226 cell line): 56.96%
Growth Percent HCT-116 (HCT-116): 88.21%
Growth Percent SNB-19 (SNB-19): 100.15%
Growth Percent M14 (M14): 117.70%
Growth Percent K562 (K562cell line): 59.58%
Growth Percent OVCAR-5 (OVCAR-5): 112.62%
Growth Percent HCT-15 (HCT-15): 61.93%
Growth Percent LOX IMVI (LOX IMVI): 30.16%
Growth Percent OVCAR-3 (OVCAR-3): 41.52%
Growth Percent NCI/ADR-RES (NCl/ADR-RES): 54.16%
Growth Percent NCI-H522 (NCI-H522): 38.70%
Growth Percent HT29 (HT29): 86.91%
Growth Percent TK-10 (TK-10): 106.46%
Growth Percent RXF 393 (RXF, 393): 85.93%
Growth Percent MOLT-4 (MOLT-4): 42.86%
Growth Percent SF-268 (SF-268): 95.90%
Growth Percent MDA-MB-435 (MDA, -MB-435): 77.03%
Growth Percent SN12C (SN12C): 76.76%
Growth Percent OVCAR-8 (OVCAR-8): 41.72%
Growth Percent DU145 (DU145): 79.83%
Growth Percent NCI-H23 (NCI-H23): 33.45%
Growth Percent NCI-H226 (NCI-H226): 78.10%
Growth Percent COLO 205 (COLO 205): 107.31%
Growth Percent SF-539 (SF-539): 90.64%

Cc1ccccc1Nc1cc2c(c3nsnc13)C(=O)c1ccccc1C2=O [C61, 4-(o-tolylamino)anthra[2,1-c][1,2,5] thiadiazol-6,11-dione]
Growth Percent U251 (U251): 19.18%
Growth Percent EKVX (EKVX): 62.56%
melting point: 177 to 178 °C
Growth Percent SK-MEL-28 (SK-MEL-28): 53.13%
Growth Percent SR (SR): −15.27%
Growth Percent MALME-3M (MALME-3M): 64.72%
Growth Percent HCC-2998 (HCC-2998): 57.61%
Growth Percent UACC-62 (UACC-62): 57.68%
Growth Percent SNB-75 (SNB-75): 43.18%
Growth Percent KM12 (KM12): 40.14%
Growth Percent 786-0 (786-O): 63.62%
Growth Percent NCI-H460 (NCI-H460): 11.85%
Growth Percent HOP-62 (HOP-62): 40.78%
Growth Percent CCRF-CEM (CCRF-CEM): 17.83%
Growth Percent SK-MEL-2 (SK-MEL-2): 32.64%
Growth Percent OVCAR-4 (OVCAR-4): −5.69%
Growth Percent A549/ATCC (A549/ATCC): 27.13%
Growth Percent IGROV1 (IGROV1): 25.29%
Growth Percent SF-295 (SF-295): 34.71%
Growth Percent UACC-257 (UACC-257): 33.79%
Growth Percent CAKI-1 (CAKI-1): 27.55%
Growth Percent HL-60(TB) (HL-60, TB): 1.11%
Growth Percent NCI-H322M (NCI-H322M): 64.54%
Growth Percent SK-MEL-5 (SK-MEL-5): 8.03%
Growth Percent ACHN (ACHN): 38.07%
IC50 [1]: 0.21 µM
Growth Percent RPMI-8226 (PRMI-8226 cell line): 16.20%
Growth Percent HCT-116 (HCT-116): 24.23%
Growth Percent SNB-19 (SNB-19): 61.89%
Growth Percent M14 (M14): 61.89%
Growth Percent K562 (K562cell line): 16.97%
Growth Percent OVCAR-5 (OVCAR-5): 79.06%
Growth Percent HCT-15 (HCT-15): 28.74%
Growth Percent LOX IMVI (LOX IMVI): 8.17%
Growth Percent OVCAR-3 (OVCAR-3): 22.37%
Growth Percent NCI/ADR-RES (NCl/ADR-RES): 28.36%
Growth Percent NCI-H522 (NCI-H522): 12.41%
Growth Percent HT29 (HT29): 52.64%
Growth Percent TK-10 (TK-10): 63.75%
Growth Percent RXF 393 (RXF, 393): 45.35%
Growth Percent MOLT-4 (MOLT-4): −11.92%
Growth Percent SF-268 (SF-268): 39.57%
Growth Percent SN12C (SN12C): 46.94%
Growth Percent OVCAR-8 (OVCAR-8): 22.87%
Growth Percent NCI-H23 (NCI-H23): 37.57%
Growth Percent NCI-H226 (NCI-H226): 47.00%
Growth Percent COLO 205 (COLO 205): 83.39%
Growth Percent SF-539 (SF-539): 47.90%
